This note sets out measurements from ChEMBL document CHEMBL1133842, “Identification of a series of PPAR gamma/delta dual agonists via solid-phase parallel synthesis” (Bioorg Med Chem Lett, 2001).

Data set [1] deals with Rattus norvegicus. Kind of data set: In vivo increase in HDL-c in ZDF rats at 30 mg/kg bid dose after 7 day administration. Type of data set: functional.
Data set [2] addresses T1, Peroxisome proliferator-activated receptor alpha (Homo sapiens, UniProt Q07869).
T1 sequence (Q07869 whole entry): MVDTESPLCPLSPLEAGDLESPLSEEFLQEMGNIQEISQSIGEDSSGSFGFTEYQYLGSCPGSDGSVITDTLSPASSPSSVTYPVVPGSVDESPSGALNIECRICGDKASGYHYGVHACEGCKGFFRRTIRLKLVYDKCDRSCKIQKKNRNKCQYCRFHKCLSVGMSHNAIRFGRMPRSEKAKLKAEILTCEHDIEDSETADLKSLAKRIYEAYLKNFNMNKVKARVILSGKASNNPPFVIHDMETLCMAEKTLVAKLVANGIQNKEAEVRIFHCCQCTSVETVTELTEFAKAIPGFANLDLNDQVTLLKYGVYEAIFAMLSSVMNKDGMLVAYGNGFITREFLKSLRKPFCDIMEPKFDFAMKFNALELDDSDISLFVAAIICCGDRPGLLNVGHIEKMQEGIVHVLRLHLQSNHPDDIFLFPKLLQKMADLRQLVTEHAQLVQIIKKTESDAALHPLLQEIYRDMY
The data set can be described thus: Agonistic transcriptional activity in CV-1 cells expressing Gal4-PPAR alpha chimera. Format: functional, cell-based.

Data set [3] relates to Rattus norvegicus. Kind of data set: In vivo percent reduction in plasma glucose in ZDF rats at 30 mg/kg bid dose after 7 day administration. Format: functional.
Data set [4] has as its target T2, Peroxisome proliferator-activated receptor delta (Mus musculus, UniProt P35396).
T2 sequence (P35396 whole entry): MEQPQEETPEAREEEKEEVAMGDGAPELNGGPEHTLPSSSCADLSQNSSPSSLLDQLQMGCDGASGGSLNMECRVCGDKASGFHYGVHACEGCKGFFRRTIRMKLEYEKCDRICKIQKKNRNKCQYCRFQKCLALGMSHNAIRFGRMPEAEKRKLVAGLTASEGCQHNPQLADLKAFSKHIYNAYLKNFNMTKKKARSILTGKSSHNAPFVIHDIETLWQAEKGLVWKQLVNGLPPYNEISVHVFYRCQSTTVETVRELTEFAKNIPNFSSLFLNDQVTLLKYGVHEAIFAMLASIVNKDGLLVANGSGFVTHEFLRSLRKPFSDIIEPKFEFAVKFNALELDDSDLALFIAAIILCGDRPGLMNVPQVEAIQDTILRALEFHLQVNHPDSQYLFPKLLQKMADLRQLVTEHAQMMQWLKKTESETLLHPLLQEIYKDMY
The data set can be described thus: Agonist activity against PPAR delta. Format: functional.

The subject of data set [5] is Rattus norvegicus. The data set can be described thus: In vivo percent reduction in serum triglycerides in ZDF rats at 30 mg/kg bid dose after 7 day administration. Type of data set: functional.
For data set [6], the target named is T3, Peroxisome proliferator-activated receptor alpha (Mus musculus, UniProt P23204).
T3 sequence (P23204 whole entry): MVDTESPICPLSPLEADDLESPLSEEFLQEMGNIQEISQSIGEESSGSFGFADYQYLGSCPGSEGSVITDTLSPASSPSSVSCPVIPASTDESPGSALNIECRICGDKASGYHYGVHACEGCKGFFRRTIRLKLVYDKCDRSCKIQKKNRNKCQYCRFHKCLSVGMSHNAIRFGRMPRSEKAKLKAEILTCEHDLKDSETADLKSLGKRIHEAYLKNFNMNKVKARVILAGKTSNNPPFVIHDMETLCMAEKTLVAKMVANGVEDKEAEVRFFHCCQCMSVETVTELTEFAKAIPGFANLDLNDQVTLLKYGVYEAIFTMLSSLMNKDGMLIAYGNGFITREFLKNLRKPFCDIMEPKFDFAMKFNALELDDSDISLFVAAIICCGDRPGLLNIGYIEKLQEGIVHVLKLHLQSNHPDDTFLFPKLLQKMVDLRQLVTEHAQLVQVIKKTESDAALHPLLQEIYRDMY
The data set can be described thus: Agonist activity against PPAR alpha. Type of data set: functional.

Data set [7] is described as follows: Mean plasma concentration at a oral dose of 3 mg/kg in rat at 2.0 hr. Type of data set: ADME, organism-based. Further details: dose 3 mg/kg, route oral.
Data set [8] concerns the target T4, Peroxisome proliferator-activated receptor gamma (Homo sapiens, UniProt P37231).
T4 sequence (P37231 whole entry): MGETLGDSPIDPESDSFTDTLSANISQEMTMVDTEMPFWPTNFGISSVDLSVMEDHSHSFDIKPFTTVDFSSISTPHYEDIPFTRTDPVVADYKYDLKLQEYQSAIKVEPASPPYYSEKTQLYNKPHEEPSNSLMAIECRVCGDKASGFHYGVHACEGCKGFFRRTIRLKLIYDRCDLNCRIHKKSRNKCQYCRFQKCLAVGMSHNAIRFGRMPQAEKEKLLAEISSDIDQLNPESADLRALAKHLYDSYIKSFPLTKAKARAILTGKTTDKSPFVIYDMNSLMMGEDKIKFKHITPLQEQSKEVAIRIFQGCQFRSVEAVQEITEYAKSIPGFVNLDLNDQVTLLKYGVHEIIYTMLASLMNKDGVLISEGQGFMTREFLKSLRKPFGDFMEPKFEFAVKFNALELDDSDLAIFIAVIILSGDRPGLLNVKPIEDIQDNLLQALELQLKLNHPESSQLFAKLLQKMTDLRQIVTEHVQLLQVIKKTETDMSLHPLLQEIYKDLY
The data set can be described thus: Agonistic transcriptional activity in CV-1 cells expressing Gal4-PPAR gamma chimera. Format: functional, cell-based.

A short description of data set [9]: Mean plasma concentration at a oral dose of 3 mg/kg in rat at 1.0 hr. Type of data set: ADME, organism-based. Also noted: dose 3 mg/kg, route oral.
Data set [10] in a line: Mean plasma concentration at a oral dose of 3 mg/kg in rat at 0.5 hr. Further details: dose 3 mg/kg, route oral. Type of data set: ADME, organism-based.
For data set [11], the target named is T5, Peroxisome proliferator-activated receptor gamma (Mus musculus, UniProt P37238).
T5 sequence (P37238 whole entry): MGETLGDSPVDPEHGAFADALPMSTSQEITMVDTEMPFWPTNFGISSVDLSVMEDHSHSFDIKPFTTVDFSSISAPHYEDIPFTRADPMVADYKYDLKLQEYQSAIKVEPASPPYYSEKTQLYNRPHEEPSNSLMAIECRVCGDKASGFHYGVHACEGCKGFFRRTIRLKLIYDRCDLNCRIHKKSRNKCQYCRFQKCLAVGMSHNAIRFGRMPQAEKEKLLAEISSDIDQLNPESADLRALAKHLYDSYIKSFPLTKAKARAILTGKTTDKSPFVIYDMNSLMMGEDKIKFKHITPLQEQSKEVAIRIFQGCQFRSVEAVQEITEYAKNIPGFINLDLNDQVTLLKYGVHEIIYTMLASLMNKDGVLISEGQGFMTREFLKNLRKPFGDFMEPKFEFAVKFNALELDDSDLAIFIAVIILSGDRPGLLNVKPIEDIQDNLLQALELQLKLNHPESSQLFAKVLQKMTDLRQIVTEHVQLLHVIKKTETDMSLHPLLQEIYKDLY
The data set can be described thus: Agonist activity against PPAR gamma. Type of data set: functional.

Data set [12] addresses T6, Peroxisome proliferator-activated receptor delta (Homo sapiens, UniProt Q03181).
T6 sequence (Q03181 whole entry): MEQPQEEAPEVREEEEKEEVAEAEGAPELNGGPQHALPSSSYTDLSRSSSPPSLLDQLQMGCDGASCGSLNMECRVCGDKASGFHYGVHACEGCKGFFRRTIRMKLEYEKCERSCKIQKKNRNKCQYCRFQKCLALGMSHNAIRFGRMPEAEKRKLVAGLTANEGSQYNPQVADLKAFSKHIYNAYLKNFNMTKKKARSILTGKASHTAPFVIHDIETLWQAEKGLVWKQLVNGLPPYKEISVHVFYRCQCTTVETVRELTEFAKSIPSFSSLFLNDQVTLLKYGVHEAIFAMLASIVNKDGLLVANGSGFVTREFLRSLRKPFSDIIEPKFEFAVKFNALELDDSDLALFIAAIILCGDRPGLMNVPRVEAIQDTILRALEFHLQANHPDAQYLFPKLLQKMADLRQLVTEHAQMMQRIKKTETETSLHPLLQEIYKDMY
Kind of data set: Agonistic transcriptional activity in CV-1 cells expressing Gal4-PPAR delta chimera. Type of data set: functional, cell-based.

SMILES strings stand for the structures. Some results are limits rather than exact numbers.

Consider `CC(C)(Oc1cccc(CCCN(Cc2ccc(C(F)(F)F)cc2C(F)(F)F)C(=O)Cc2ccc(C(F)(F)F)cc2)c1)C(=O)O`, for which the Reduction with Rattus norvegicus [1] was 24%; with Rattus norvegicus [3] it was 47%; in the data set on Rattus norvegicus [5], 51%. For the same compound, the EC50 – broadly, the concentration giving half of the maximal effect – in [2] is 620 nM; in [4], 19 nM; in [6] it was more than 1000 nM; in [8], 4 nM; in [11], 28 nM; in data set [12] it was 19 nM. In data set [7], this compound gave a concentration at 2 h of 524 ng/mL. The concentration at 1 h in [9] turned out to be 722 ng/mL. The compound further yielded a concentration at 0.5 h in data set [10] of 373 ng/mL.
`CC(C)(Oc1cccc(CCCN(Cc2ccc(C(F)(F)F)cc2C(F)(F)F)C(=O)COc2ccc(Cl)c(Cl)c2)c1)C(=O)O`: the EC50 in data set [2] is 710 nM; in [8], 30 nM; in data set [12] it was 93 nM.
For `CCOC(=O)c1ccc(NC(=O)N(CCCc2cccc(OC(C)(C)C(=O)O)c2)Cc2ccc(C(F)(F)F)cc2C(F)(F)F)cc1`, the EC50 in data set [2] turned out to be 230 nM; in [8], 0.5 nM; in data set [12] it was 160 nM.
